According to patent publication US8952024B2, “Herbicidal pyrimidone derivatives” (E I du Pont de Nemours and Company, priority 2009, dated 2015):

Experiments:
Test in all cases: Test D pre-/postemergence plant response
Type in all cases: in vivo
[1] = tested on: bluegrass (annual bluegrass, Poa annua)
In short: (§1)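 Pre + post applications; loam/sand soil; solvent + surfactant vehicle; post-em plants 1- to 4-leaf (2–18 cm); greenhouse 14–21 d; visual score 0 (none) to 100 (full control) vs untreated.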

[2] = tested on: Russian thistle (Salsola kali); settings: scale 0 to 100
In short: as §1

[3] = tested on: goosegrass (Eleusine indica)
In short: as §1

[4] = tested on: signalgrass (broadleaf signalgrass, Brachiaria platyphylla)
In short: as §1

[5] = tested on: dayflower (Virginia (VA) dayflower, Commelina virginica)
In short: as §1

[6] = tested on: chickweed (common chickweed, Stellaria media); settings: Postemergence, 125 g ai/ha; scale 0 to 100 (0 no effect, 100 complete control)
In short: as §1

[7] = tested on: quackgrass (Elytrigia repens)
In short: as §1

[8] = tested on: black mustard (Brassica nigra)
In short: as §1

[9] = tested on: kochia (Kochia scoparia)
In short: as §1

[10] = tested on: large crabgrass (Digitaria sanguinalis)
In short: as §1

[11] = tested on: ragweed (common ragweed, Ambrosia elatior)
In short: as §1

[12] = tested on: morningglory (pitted morningglory, Ipomoea lacunosa)
In short: as §1

[13] = tested on: sandbur (southern sandbur, Cenchrus echinatus)
In short: as §1

[14] = tested on: Surinam grass (Brachiaria decumbens)
In short: as §1

[15] = tested on: purslane (common purslane, Portulaca oleracea)
In short: as §1

[16] = tested on: dallisgrass (Paspalum dilatatum)
In short: as §1

[17] = Postemergence, 16 g ai/ha, scale 0 to 100
[18] = Postemergence, 31 g ai/ha, scale 0 to 100 (0 no effect, 100 complete control)
[19] = Postemergence, 125 g ai/ha, scale 0 to 100 (0 no effect, 100 complete control)
[20] = Postemergence, 62 g ai/ha, scale 0 to 100 (0 no effect, 100 complete control)
[21] = Preemergence, 16 g ai/ha, scale 0 to 100, 0 no effect, 100 complete control
[22] = Preemergence, 31 g ai/ha, scale 0 to 100 (0 no effect, 100 complete control)
[23] = Preemergence, 62 g ai/ha, scale 0 to 100
[24] = Preemergence, 125 g ai/ha, scale 0 to 100
[25] = Postemergence, 31 g ai/ha, scale 0 to 100

Cc1ccc(F)c(-n2c(-c3ccccc3)ncc(C(=O)C3=C(O)CCCC3=O)c2=O)c1 [Compound 51]
60: Plant response rating, Ragweed [11, 17] | Plant response rating, Sandbur [13, 19] | Plant response rating, Surinam Grass [14, 25]
65: Plant response rating, Goosegrass [3, 25] | Plant response rating, Goosegrass [3, 19] | Plant response rating, Goosegrass [3, 20] | Plant response rating, Morningglory [12, 19] | Plant response rating, Purslane [15, 23]
40: Plant response rating, Goosegrass [3, 23] | Plant response rating, Goosegrass [3, 24]
100: Plant response rating, Black Mustard [8, 19] | Plant response rating, Black Mustard [8, 24] | Plant response rating, Morningglory [12, 24] | Plant response rating, Purslane [15, 24]
30: Plant response rating, Morningglory [12, 23] | Plant response rating, Dallisgrass [16, 20]
80: Plant response rating, Ragweed [11, 20] | Plant response rating, Surinam Grass [14, 19]
0: Plant response rating, Bluegrass [1, 17] | Plant response rating, Bluegrass [1, 18] | Plant response rating, Bluegrass [1, 19] | Plant response rating, Bluegrass [1, 20] | Plant response rating, Bluegrass [1, 21] | Plant response rating, Bluegrass [1, 22] | Plant response rating, Bluegrass [1, 23] | Plant response rating, Bluegrass [1, 24] | Plant response rating, Russian Thistle ([2]; Postemergence, 16 g ai/ha) | Plant response rating, Signalgrass [4, 21] | Plant response rating, Signalgrass [4, 22] | Plant response rating, Dayflower, VA [5, 21] | Plant response rating, Dayflower, VA [5, 22] | Plant response rating, Dayflower, VA [5, 24] | Plant response rating, Quackgrass [7, 17] | Plant response rating, Quackgrass [7, 25] | Plant response rating, Quackgrass [7, 19] | Plant response rating, Quackgrass [7, 20] | Plant response rating, Quackgrass [7, 21] | Plant response rating, Quackgrass [7, 22] | Plant response rating, Quackgrass [7, 24] | Plant response rating, Black Mustard [8, 21] | Plant response rating, Kochia [9, 21] | Plant response rating, Kochia [9, 23] | Plant response rating, Crabgrass, Large [10, 21] | Plant response rating, Morningglory [12, 17] | Plant response rating, Morningglory [12, 21] | Plant response rating, Morningglory [12, 22] | Plant response rating, Sandbur [13, 21] | Plant response rating, Sandbur [13, 22] | Plant response rating, Purslane [15, 21] | Plant response rating, Dallisgrass [16, 21]
20: Plant response rating, Goosegrass [3, 21] | Plant response rating, Goosegrass [3, 22] | Plant response rating, Dayflower, VA [5, 19] | Plant response rating, Kochia [9, 19] | Plant response rating, Morningglory [12, 25] | Plant response rating, Morningglory [12, 20] | Plant response rating, Purslane [15, 25] | Plant response rating, Dallisgrass [16, 17] | Plant response rating, Dallisgrass [16, 25]
98: Plant response rating, Surinam Grass [14, 22]
95: Plant response rating, Black Mustard [8, 18] | Plant response rating, Ragweed [11, 24]
75: Plant response rating, Russian Thistle ([2]; Preemergence, 125 g ai/ha) | Plant response rating, Black Mustard [8, 23] | Plant response rating, Ragweed [11, 25] | Plant response rating, Sandbur [13, 24]
25: Plant response rating, Crabgrass, Large [10, 17] | Plant response rating, Sandbur [13, 25] | Plant response rating, Sandbur [13, 20]
90: Plant response rating, Surinam Grass [14, 21] | Plant response rating, Dallisgrass [16, 24]
5: Plant response rating, Signalgrass [4, 17] | Plant response rating, Kochia [9, 17] | Plant response rating, Kochia [9, 25] | Plant response rating, Kochia [9, 20] | Plant response rating, Crabgrass, Large [10, 22] | Plant response rating, Crabgrass, Large [10, 23] | Plant response rating, Crabgrass, Large [10, 24] | Plant response rating, Sandbur [13, 17]
70: Plant response rating, Chickweed [6] | Plant response rating, Black Mustard [8, 17] | Plant response rating, Surinam Grass [14, 20] | Plant response rating, Dallisgrass [16, 19]
50: Plant response rating, Signalgrass [4, 19] | Plant response rating, Signalgrass [4, 20] | Plant response rating, Black Mustard [8, 22] | Plant response rating, Kochia [9, 24] | Plant response rating, Ragweed [11, 22] | Plant response rating, Surinam Grass [14, 17] | Plant response rating, Purslane [15, 22]
10: Plant response rating, Signalgrass [4, 24] | Plant response rating, Dayflower, VA [5, 17] | Plant response rating, Dayflower, VA [5, 25] | Plant response rating, Dayflower, VA [5, 20] | Plant response rating, Purslane [15, 17] | Plant response rating, Dallisgrass [16, 22] | Plant response rating, Dallisgrass [16, 23]
35: Plant response rating, Goosegrass [3, 17] | Plant response rating, Signalgrass [4, 25] | Plant response rating, Crabgrass, Large [10, 25] | Plant response rating, Crabgrass, Large [10, 19] | Plant response rating, Crabgrass, Large [10, 20] | Plant response rating, Ragweed [11, 21] | Plant response rating, Purslane [15, 19] | Plant response rating, Purslane [15, 20]
85: Plant response rating, Ragweed [11, 19]
